The results in this text go back to US11578084B2, “Condensed ring compounds having dopamine D3 receptor antagonistic effect” (Shionogi & Co., Ltd., priority 2018, dated 2023).

Test [1] concerns the target human recombinant dopamine D3 receptor (Homo sapiens (Human), UniProt P35462). The test is described as follows: Test of binding inhibition for dopamine D3 receptor ([3H]-Methylspiperone SPA). Particulars: Jump-In HEK cell membranes, 2 nM [3H]-Methylspiperone, 120 min at 25° C.; read-out: hD3_Ki. The protocol:
(§1) (Experimental Conditions)
Cell membranes: Jump-In HEK cell membranes expressing human recombinant dopamine D3 receptor (4 μg/well)
(§2) Non-specific ligand: (final concentration) 10 μM Butaclamol [(+)-Butaclamol Hydrochloride, D033, Sigma]
(§3) SPA beads solution: SPA beads [WGA PVT SPA Scintillation Beads, RPNQ0001 (500 mg), RPNQ0060 (2 g), PerkinElmer] (0.2 mg/well)
(§4) Incubation time and temperature: 120 min at 25° C.
(§5) Butaclamol or the compounds of the present invention were weighed and DMSO was added to make a 10 mM solution. This solution was diluted to each concentration.
[^3H]-Methylspiperone was weighed and the buffer solution was added to make a 6 nM solution.
(§6) SPA beads were weighed and stirred in water to make a 50 mg/mL solution. Using this solution, a mixture with the cell membranes was prepared.
(§7) Jump-In HEK Cell membranes (final reaction amount: 4 μg protein/well), the SPA beads solution (final reaction amount: 0.2 mg/well) and the buffer solution were mixed and the mixed solution was left still for 1 hour or more at 4° C. Then, 50 μL of the mixture was added to each well of the plate. In addition, 25 μL of 6 nM [^3H]-Methylspiperone (final concentration: 2 nM) was added to each well. […] Non-specific binding was calculated based on the radioactivity of [^3H]-Methylspiperone in the presence of 10 μM non-labeled Butaclamol. The total binding was calculated using the radioactivity of [H]-Methylspiperone in the absence of the compounds of the present invention (vehicle). The Ki values were calculated from dose-response curves.
(§8) Binding activities of the compounds of the present invention were calculated from the following Binding Inhibition Rate (%): Inhibition Rate (%)=[1−(c−a)/(b−a)]×100 • a: Average cpm of non-specific binding • b: Average cpm of total binding • c: Cpm in the presence of each test compound

Test [2] addresses human recombinant dopamine D2 receptor (Homo sapiens (Human), UniProt P14416). The experiment in a line: Test of binding inhibition for dopamine D2 receptor ([3H]-Methylspiperone SPA). Particulars: Jump-In HEK cell membranes, read-out: hD2_Ki. How it is done:
as §1
Cell membranes: Jump-In HEK cell membranes expressing human recombinant dopamine D2 receptor (2 μg/well)
as §2, §3, §4, §5, §6
as §7, with “amount: 2” for “amount: 4”, “were mixed,” for “were mixed”, “plate.” for “plate. In addition, 25 μL of 6 nM [^3H]-Methylspiperone (final concentration: 2 nM) was added to each well.”, “of [^3H]-Methylspiperone” for “of [H]-Methylspiperone”, “invention (Vehicle).” for “invention (vehicle).”
as §8

[3] abbreviates: 1.2 nM [3H]-Methylspiperone, 120 min at 25° C.

Read-outs that look alike come from different tables or passages of the source. Some results are limits rather than exact numbers.

Chain of human recombinant dopamine D2 receptor (P14416 whole entry): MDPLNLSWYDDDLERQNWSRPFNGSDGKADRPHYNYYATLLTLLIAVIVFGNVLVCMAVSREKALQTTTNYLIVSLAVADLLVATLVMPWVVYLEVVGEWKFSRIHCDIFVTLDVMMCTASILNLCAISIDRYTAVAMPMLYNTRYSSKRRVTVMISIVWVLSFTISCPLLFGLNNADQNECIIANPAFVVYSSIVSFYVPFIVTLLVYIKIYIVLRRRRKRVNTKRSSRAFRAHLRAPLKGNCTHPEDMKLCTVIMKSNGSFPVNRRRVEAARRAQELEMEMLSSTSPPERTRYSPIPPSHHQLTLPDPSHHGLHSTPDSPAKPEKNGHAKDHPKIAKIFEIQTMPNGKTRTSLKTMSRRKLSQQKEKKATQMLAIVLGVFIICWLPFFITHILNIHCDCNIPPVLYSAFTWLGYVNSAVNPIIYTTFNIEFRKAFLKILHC
Chain of human recombinant dopamine D3 receptor (P35462 whole entry): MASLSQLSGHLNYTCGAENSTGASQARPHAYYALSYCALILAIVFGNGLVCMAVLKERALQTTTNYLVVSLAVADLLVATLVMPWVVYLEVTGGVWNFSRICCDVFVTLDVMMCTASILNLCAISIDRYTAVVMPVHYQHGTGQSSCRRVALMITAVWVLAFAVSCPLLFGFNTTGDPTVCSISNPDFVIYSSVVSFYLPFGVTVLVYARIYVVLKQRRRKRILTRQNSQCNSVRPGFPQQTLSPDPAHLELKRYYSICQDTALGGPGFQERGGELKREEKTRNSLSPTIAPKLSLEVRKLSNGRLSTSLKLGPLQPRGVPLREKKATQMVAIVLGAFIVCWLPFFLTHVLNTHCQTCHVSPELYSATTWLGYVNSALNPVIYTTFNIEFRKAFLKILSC

As for `Cc1cnc(CC(=O)N[C@H]2CC[C@](F)(CCN3CCc4ccc(CCC(F)(F)F)nc4CC3)CC2)o1` [Example I-141], the Ki in test [1] is 0.41 nM; in test [2] (setting [3]) it was over 2300 nM.
Consider `O=C(NC12CCC(CCN3CCc4nc(OCC(F)(F)F)sc4CC3)(CC1)CC2)c1cccnc1C(F)F` [II-3], for which the Ki in test [1] turned out to be 0.29 nM; in test [2] ([3H]-Methylspiperone 1.2 nM) it was 1400 nM.
On the same counts, the results for `Cc1ncc(CC(=O)N[C@H]2CC[C@](F)(CCN3CCc4nc(OCC(F)(F)F)sc4CC3)CC2)cn1` [I′-51] are 0.48 nM and 890 nM.
In the case of `Cc1nnc(CC(=O)N[C@H]2CC[C@H](CCN3CCc4ccc(O[C@@H](C)C(F)(F)F)nc4CC3)CC2)o1` [III-7], the figures for the Ki in test [1] and in test [2] (setting [3]) were 0.09 nM and 290 nM, respectively.
On to `Cn1ncc(CC(=O)N[C@H]2CC[C@H](CCN3CCc4ccc(CCC(F)(F)F)nc4CC3)CC2)c1F` [I′-19], for which the Ki in test [1] was 0.36 nM; in test [2] ([3H]-Methylspiperone 1.2 nM), 1100 nM.
Consider `COc1cc(CC(=O)N[C@H]2CC[C@](F)(CCN3CCc4ccc(OCC(F)F)nc4CC3)CC2)on1` [Example I-085], for which the Ki was 0.044 nM in test [1] and over 2200 nM in test [2] (setting [3]).
For `Cn1cc(CC(=O)N[C@H]2CC[C@H](CCN3CCc4nc(OCC(F)F)sc4CC3)CC2)c(F)n1` [I′-30], the Ki stood at 0.19 nM in test [1] and 1600 nM in test [2] ([3H]-Methylspiperone 1.2 nM).
As for `Cn1ncc(CC(=O)N[C@H]2CC[C@H](CCN3CCc4ccc(OCC(C)(F)F)nc4CC3)CC2)n1` [I′-42], the Ki in test [1] stood at 0.016 nM; in test [2] ([3H]-Methylspiperone 1.2 nM), 500 nM.
In the case of `O=C(N[C@H]1CC[C@H](CCN2CCc3ccc(OCC(F)F)nc3CC2)CC1)c1cccnc1C(F)F` [Example I-121], the Ki in test [1] was found to be 0.26 nM; in test [2] (setting [3]) it was 650 nM.
Consider `Cc1cc(CC(=O)N[C@H]2CC[C@H](CCN3CCc4ccc(CCC(F)(F)F)nc4CC3)CC2)no1` [I′-21], for which the Ki in test [1] was 1 nM; in test [2] ([3H]-Methylspiperone 1.2 nM), over 2300 nM.
Take `C[C@H](Oc1nc2c(s1)CCN(CC[C@H]1CC[C@H](NC(=O)Cc3cnn(C)n3)CC1)CC2)C(F)(F)F` [III-6]: the Ki in test [1] is 0.15 nM; in test [2] (setting [3]) it was 1600 nM.
In the case of `Cn1ncc(CC(=O)N[C@H]2CC[C@](F)(CCN3CCc4ccc(OCC(F)F)nc4CC3)CC2)c1F` [I′-35], the figures for the Ki in test [1] and in test [2] ([3H]-Methylspiperone 1.2 nM) were 0.41 nM and 1800 nM, respectively.
Take `Cc1nc(CC(=O)N[C@H]2CC[C@](F)(CCN3CCc4ccc(OCC(C)(F)F)nc4CC3)CC2)no1` [Example I-078]: the Ki in test [1] was 0.13 nM; in test [2] (setting [3]) it was over 1800 nM.
Taken in the same sequence, the figures for `Cc1nnc(CC(=O)N[C@H]2CC[C@H](CCN3CCc4nc(O[C@H](C)C(F)(F)F)sc4CC3)CC2)s1` [Example I-125] were 0.61 nM and 1100 nM.
Taken in the same sequence, the figures for `C[C@@H](Oc1ccc2c(n1)CCN(CC[C@H]1CC[C@H](NC(=O)Cc3cnn(C)n3)CC1)CC2)C(F)(F)F` [Example I-128] were 0.073 nM and 510 nM.
Consider `Cc1ncc(CC(=O)NC23CCC(CCN4CCc5nc(OCC(F)(F)F)sc5CC4)(CC2)CC3)cn1` [II-6], for which the Ki in test [1] is 0.35 nM; in test [2] ([3H]-Methylspiperone 1.2 nM), 1200 nM.
In the case of `Cc1cnc(CC(=O)N[C@H]2CC[C@](F)(CCN3CCc4ccc(OCC(F)F)nc4CC3)CC2)o1` [Example I-086], the Ki is 0.52 nM in test [1] and over 2200 nM in test [2] (setting [3]).
On to `Cc1cc(CC(=O)N[C@H]2CC[C@H](CCN3CCc4ccc(OCC(F)F)nc4CC3)CC2)no1` [Example I-094], for which the Ki was 0.3 nM in test [1] and 910 nM in test [2] (setting [3]).
As for `Cn1cc2c(C(=O)N[C@H]3CC[C@H](CCN4CCc5ccc(CCC(F)(F)F)nc5CC4)CC3)ccc(F)c2n1` [I′-9], the Ki in test [1] stood at 0.11 nM; in test [2] ([3H]-Methylspiperone 1.2 nM) it was 530 nM.
On the same counts, the results for `Cn1cc(CC(=O)N[C@H]2CC[C@H](CCN3CCc4ccc(CCC(F)(F)F)nc4CC3)CC2)c(F)n1` [I′-18] are 0.38 nM and 1000 nM.
On to `Cc1nc(CC(=O)N[C@H]2CC[C@](F)(CCN3CCc4nc(OCC(F)(F)F)sc4CC3)CC2)nn1C` [I′-50], for which the results for the Ki in test [1] and in test [2] ([3H]-Methylspiperone 1.2 nM) were 0.23 nM and 1600 nM, respectively.
On the same counts, the results for `Cn1ncc(CC(=O)N[C@H]2CC[C@H](CCN3CCc4nc(OCC(F)(F)F)sc4CC3)CC2)c1F` [I′-22] are 0.1 nM and 2000 nM.
`Cn1cc(CC(=O)N[C@H]2CC[C@H](CCN3CCc4nc(OCC(F)(F)F)sc4CC3)CC2)c(F)n1` [I′-24]: the Ki in test [1] amounted to 0.17 nM; in test [2] ([3H]-Methylspiperone 1.2 nM) it was 630 nM.
On the same counts, the results for `Cn1ncc(CC(=O)NC23CCC(CCN4CCc5nc(OCC(F)(F)F)sc5CC4)(CC2)CC3)n1` [II-4] are 0.16 nM and 1400 nM.
As to `Cn1cc2c(C(=O)N[C@H]3CC[C@H](CCN4CCc5ccc(OC6CCC6)nc5CC4)CC3)cccc2n1` [Example I-089], the Ki in test [1] is 0.22 nM; in test [2] (setting [3]) it was over 2200 nM.
Taken in the same sequence, the figures for `CCn1c(C(=O)N[C@H]2CC[C@H](CCN3CCc4ccc(OCC(F)F)nc4CC3)CC2)cccc1=O` [Example I-092] were 0.16 nM and 310 nM.
`CC(F)(F)COc1nc2c(s1)CCN(CC[C@]1(F)CC[C@@H](NC(=O)c3cccnc3C(F)F)CC1)CC2` [Example I-162]: the Ki in test [1] came to 0.56 nM; in test [2] (setting [3]), 740 nM.
On to `Cc1ncc(OCC(=O)N[C@H]2CC[C@H](CCN3CCc4ccc(CCC(F)(F)F)nc4CC3)CC2)cn1` [I′-7], for which the figures for the Ki in test [1] and in test [2] ([3H]-Methylspiperone 1.2 nM) were 0.12 nM and 1100 nM, respectively.
Turning to `Cn1ncc(CC(=O)N[C@H]2CC[C@](F)(CCN3CCc4nc(OCC(F)(F)C(F)F)sc4CC3)CC2)n1` [III-9], the Ki came out at 0.081 nM in test [1] and 770 nM in test [2] (setting [3]).
Taken in the same sequence, the figures for `Cc1nnc(CC(=O)N[C@H]2CC[C@](F)(CCN3CCc4ccc(CCC(F)(F)F)nc4CC3)CC2)s1` [III-1] were 0.14 nM and over 2300 nM.
On the same counts, the results for `Cc1nnc(CC(=O)N[C@H]2CC[C@](F)(CCN3CCc4nc(OCCC(F)(F)F)sc4CC3)CC2)s1` [Example I-115] are 0.63 nM and over 2200 nM.
On the same counts, the results for `CN1Cc2c(C(=O)N[C@H]3CC[C@](F)(CCN4CCc5nc(OCC(F)F)sc5CC4)CC3)cccc2C1=O` [Example I-072] are 0.13 nM and over 1700 nM.
For `Cc1ncc(/C=C/C(=O)N[C@H]2CC[C@](F)(CCN3CCc4nc(OCCC(F)(F)F)sc4CC3)CC2)cn1` [Example I-116], the Ki is 1 nM in test [1] and over 2200 nM in test [2] (setting [3]).
With `Cc1ncc(OCC(=O)N[C@H]2CC[C@](F)(CCN3CCc4ccc(OCC(C)(F)F)nc4CC3)CC2)cn1` [I′-46], the Ki was found to be 0.33 nM in test [1] and 260 nM in test [2] ([3H]-Methylspiperone 1.2 nM).
For the compound `CC(C)Oc1ccc2c(n1)CCN(CC[C@H]1CC[C@H](NC(=O)c3cccc4c(=O)n(C)ccc34)CC1)CC2` [Example I-063], the Ki in test [1] was determined as 0.62 nM; in test [2] (setting [3]), 1700 nM.
Take `Cc1cc(CC(=O)N[C@H]2CC[C@H](CCN3CCc4ccc(CCC(F)(F)F)nc4CC3)CC2)on1` [I′-17]: the Ki is 0.15 nM in test [1] and over 2300 nM in test [2] ([3H]-Methylspiperone 1.2 nM).
Taken in the same sequence, the figures for `Cn1cc(CC(=O)N[C@H]2CC[C@H](CCN3CCc4ccc(CCC(F)(F)F)nc4CC3)CC2)cn1` [I′-4] were 0.22 nM and 1200 nM.
Taken in the same sequence, the figures for `Cc1nc(CC(=O)N[C@H]2CC[C@H](CCN3CCc4ccc(CCC(F)(F)F)nc4CC3)CC2)n(C)n1` [I′-15] were 1.4 nM and 1700 nM.
Taken in the same sequence, the figures for `Cc1ncc(/C=C/C(=O)NC23CCC(CCN4CCc5nc(OCC(F)(F)F)sc5CC4)(CC2)CC3)cn1` [II-15] were 0.16 nM and 240 nM.
For the compound `C[C@H](Oc1nc2c(s1)CCN(CC[C@H]1CC[C@H](NC(=O)c3cccc(=O)n3C)CC1)CC2)C(F)(F)F` [III-5], the Ki came out at 0.23 nM in test [1] and 1000 nM in test [2] (setting [3]).
In the case of `Cn1ncc(CC(=O)N[C@H]2CC[C@H](CCN3CCc4nc(OCC(F)F)sc4CC3)CC2)n1` [I′-40], the Ki in test [1] amounted to 0.19 nM; in test [2] ([3H]-Methylspiperone 1.2 nM), 1900 nM.
On the same counts, the results for `Cc1ncc(/C=C/C(=O)N[C@H]2CC[C@](F)(CCN3CCc4nc(OCC(F)(F)F)sc4CC3)CC2)cn1` [I′-48] are 0.27 nM and over 2200 nM.
Take `Cn1cc2c(C(=O)N[C@H]3CC[C@H](CCN4CCc5ccc(OC6CCC(F)(F)C6)nc5CC4)CC3)cccc2n1` (some centres unmarked) [Example I-057]: the Ki in test [1] was determined as 0.18 nM; in test [2] (setting [3]), 770 nM.
